Measurements published in ChEMBL document CHEMBL6109085, “Furazanopyrazine-based novel promising anticancer agents interfering with the eicosanoid biosynthesis pathways by dual mPGES-1 and sEH inhibition” (Eur J Med Chem, 2025).
pIC50: −log10 of the molar value.

Tests used:
[1] = Microsomal stability in human liver microsomes assessed as half-life preincubated for 5 mins followed by NADPH and UDP-GlcUA addition and measured after 30 to 120 mins by UHPLC analysis; assay type: ADME, Microsome; settings: time 35-125 min
[2] = Microsomal stability in human liver microsomes assessed as intrinsic clearance preincubated for 5 mins followed by NADPH and UDP-GlcUA addition and measured after 30 to 120 mins by UHPLC analysis; assay type: ADME, Microsome; settings: time 35-125 min, read-out: CLH
[3] = test system: HCT-116; assay: Antiproliferative activity against human HCT-116 cells assessed as reduction in cell survival index incubated for 48 hrs by MTT assay; settings: HCT-116, 48 h
[4] = Cytotoxicity against human HaCaT cells assessed as reduction in cell survival index incubated for 48 hrs by MTT assay; assay type: toxicity, cell-based
[5] = biological target: T1, Bifunctional epoxide hydrolase 2 (Homo sapiens) (UniProt P34913); assay: Inhibition of recombinant human sEH extracted from baculovirus infected Sf9 cells using PHOME as substrate at 10 uM preincubated for 15 mins followed by PHOME substrate addition and measured after 60 mins by fluorescence based analysis relative to control; settings: time 75.0 min
T1 sequence (whole entry): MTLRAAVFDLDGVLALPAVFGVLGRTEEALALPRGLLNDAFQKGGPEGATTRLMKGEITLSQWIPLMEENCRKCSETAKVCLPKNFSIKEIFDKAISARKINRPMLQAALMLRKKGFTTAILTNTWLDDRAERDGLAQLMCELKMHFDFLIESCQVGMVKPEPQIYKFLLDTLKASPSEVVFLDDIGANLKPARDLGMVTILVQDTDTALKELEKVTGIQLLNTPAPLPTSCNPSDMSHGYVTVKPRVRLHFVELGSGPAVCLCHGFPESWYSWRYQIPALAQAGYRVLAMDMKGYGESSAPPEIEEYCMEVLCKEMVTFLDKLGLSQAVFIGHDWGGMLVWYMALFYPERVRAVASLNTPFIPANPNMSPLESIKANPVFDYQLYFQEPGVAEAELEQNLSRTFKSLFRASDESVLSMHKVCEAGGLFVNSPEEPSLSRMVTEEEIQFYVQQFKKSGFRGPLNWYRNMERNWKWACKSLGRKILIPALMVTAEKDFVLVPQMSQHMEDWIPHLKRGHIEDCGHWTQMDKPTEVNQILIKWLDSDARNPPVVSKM

Row | half-life [1] [h] | microsomal CLint [2] [µL/min/mg] | inhibition [5] [%] | SMILES | pIC50 [3] | IC50 at 48 h [4] [µM]
1 | 3.97 | 5.82 |  | O=C1c2ccc(OCc3ccc(Br)cc3)cc2-c2nc3nonc3nc21 |  | 
2 | 5.43 | 4.25 |  | O=C1c2ccc(OCCCc3ccccc3)cc2-c2nc3nonc3nc21 | 5.19 | 28
3 | 2.65 | 8.73 |  | O=C1c2ccc(OCCc3cccc(C(F)(F)F)c3)cc2-c2nc3nonc3nc21 | 5.08 | 17
4 | 0.075 | 307 | 48 | O=C(COc1ccc2c(c1)-c1nc3nonc3nc1C2=O)OCc1ccccc1 |  | 
5 | 0.715 | 32.3 |  | O=C1c2ccc(OCCc3ccc(F)cc3)cc2-c2nc3nonc3nc21 |  | 
6 | 2.74 | 8.42 |  | O=C1c2ccc(OCc3ccccc3)cc2-c2nc3nonc3nc21 |  | 
7 | 1.16 | 19.9 |  | O=C(Oc1ccc2c(c1)-c1nc3nonc3nc1C2=O)c1ccccc1 |  | 
